Source: US10647713B2 (Nimbus Lakshmi, Inc., priority 2016, dated 2020)
pKd: −log10 of the molar value.

Target: human TYK2 (JH2domain-pseudokinase) (Homo sapiens (Human), UniProt P29597)
Test: TYK2 JH2 Domain Binding Assay (KINOMEscan, DiscoveRx)
Conditions: 11-point dilution, duplicate
Outline: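 TYK2 JH2 (G556–D888)–NFkB DBD fusion, DNA-tagged, from HEK293 extracts (<0.1 nM) competed against immobilised biotinylated ligand for 1 h at room temperature, 0.9% DMSO. Bead-retained kinase quantified by qPCR; Kd from 11-point 3-fold series (top 30,000 nM, duplicate), Hill fit with slope −1.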

Chain of human TYK2 (JH2domain-pseudokinase) (P29597 556-888): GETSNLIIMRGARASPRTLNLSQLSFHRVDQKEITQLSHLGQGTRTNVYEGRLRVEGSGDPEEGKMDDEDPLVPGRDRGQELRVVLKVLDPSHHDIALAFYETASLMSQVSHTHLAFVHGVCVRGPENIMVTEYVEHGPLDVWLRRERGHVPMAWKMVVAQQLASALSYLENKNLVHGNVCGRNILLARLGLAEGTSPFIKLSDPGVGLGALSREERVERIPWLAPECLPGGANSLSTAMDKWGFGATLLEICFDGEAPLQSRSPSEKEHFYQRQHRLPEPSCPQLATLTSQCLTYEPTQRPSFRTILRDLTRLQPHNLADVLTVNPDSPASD

SMILES	pKd
CS(=O)(=O)c1cc([C@@H]2CCOC2)ccc1Nc1cc(NC(=O)C2CC2)nc2[nH]c(C(F)F)nc12 [I-452, (S)—N-(2-(difluoromethyl)-7-((2-(methylsulfonyl)-4-(tetrahydrofuran-3-yl)phenyl)amino)-3H-imidazo[4,5-b]pyridin-5-yl)cyclopropanecarboxamide]	9.00 to 9.30
CS(=O)(=O)c1cc([C@H]2CCOC2)ccc1Nc1cc(NC(=O)C2CC2)nc2[nH]c(C(F)F)nc12 [I-453, (R)—N-(2-(difluoromethyl)-7-((2-(methylsulfonyl)-4-(tetrahydrofuran-3-yl)phenyl)amino)-3H-imidazo[4,5-b]pyridin-5-yl)cyclopropanecarboxamide]	9.30 to 10.00
CO[C@H](C)c1ccc(Nc2cc(NC(=O)C3CC3)nc3[nH]c(C(F)F)nc23)c(S(C)(=O)=O)c1 [I-454, (R)—N-(2-(difluoromethyl)-7-((4-(1-methoxyethyl)-2-(methylsulfonyl)phenyl)amino)-3H-imidazo[4,5-b]pyridin-5-yl)cyclopropanecarboxamide]	9.00 to 9.30
CO[C@@H](C)c1ccc(Nc2cc(NC(=O)C3CC3)nc3[nH]c(C(F)F)nc23)c(S(C)(=O)=O)c1 [I-455, (S)—N-(2-(difluoromethyl)-7-((4-(1-methoxyethyl)-2-(methylsulfonyl)phenyl)amino)-3H-imidazo[4,5-b]pyridin-5-yl)cyclopropanecarboxamide]	8.00 to 9.00
[2H]C([2H])([2H])S(=O)(=O)N(C)c1ccccc1Nc1cc(Nc2cc(C)nc(C)n2)nc2[nH]c(C)nc12 [I-456, N-(2-((5-((2,6-dimethylpyrimidin-4-yl)amino)-2-methyl-3H-imidazo[4,5-b]pyridin-7-yl)amino)phenyl)-N-methylmethanesulfonamide-d3]	9.30 to 10.00
[2H]C([2H])([2H])N(c1ccccc1Nc1cc(Nc2cc(C)nc(C)n2)nc2[nH]c(C(F)F)nc12)S(=O)(=O)C([2H])([2H])[2H] [I-457, N-(2-((2-(difluoromethyl)-5-((2,6-dimethylpyrimidin-4-yl)amino)-3H-imidazo[4,5-b]pyridin-7-yl)amino)phenyl)-N-(methyl-d3)methanesulfonamide-d3]	9.30 to 10.00
[2H]C([2H])([2H])N(c1ccccc1Nc1cc(Nc2cc(C)nc(C)n2)nc2[nH]c(C)nc12)S(=O)(=O)C([2H])([2H])[2H] [I-458, N-(2-((5-((2,6-dimethylpyrimidin-4-yl)amino)-2-methyl-3H-imidazo[4,5-b]pyridin-7-yl)amino)phenyl)-N-(methyl-d3)methanesulfonamide-d3]	9.30 to 10.00
Cc1cn(C)nc1-c1ccc(Nc2cc(NC(=O)[C@@H]3CC3(C)C)nc3[nH]c(C(F)F)nc23)c(S(C)(=O)=O)c1 [I-459, (R)—N-(2-(difluoromethyl)-7-((4-(1,4-dimethyl-1H-pyrazol-3-yl)-2-(methylsulfonyl)phenyl)amino)-3H-imidazo[4,5-b]pyridin-5-yl)-2,2-dimethylcyclopropane-1-carboxamide]	8.00 to 9.00
Cc1cn(C)nc1-c1ccc(Nc2cc(NC(=O)[C@H]3CC3(C)C)nc3[nH]c(C(F)F)nc23)c(S(C)(=O)=O)c1 [I-460, (S)—N-(2-(difluoromethyl)-7-((4-(1,4-dimethyl-1H-pyrazol-3-yl)-2-(methylsulfonyl)phenyl)amino)-3H-imidazo[4,5-b]pyridin-5-yl)-2,2-dimethylcyclopropane-1-carboxamide]	8.00 to 9.00
Cc1cn(C)c(-c2ccc(Nc3cc(NC(=O)C4CC4)nc4[nH]c(C)nc34)c(S(C)(=O)=O)c2)n1 [I-461, N-(7-((4-(1,4-dimethyl-1H-imidazol-2-yl)-2-(methylsulfonyl)phenyl)amino)-2-methyl-3H-imidazo[4,5-b]pyridin-5-yl)cyclopropanecarboxamide]	9.30 to 10.00
Cc1nc2c(Nc3ccc(-c4ncc(C)n4C)cc3S(C)(=O)=O)cc(NC(=O)C3CC3)nc2[nH]1 [I-462, N-(7-((4-(1,5-dimethyl-1H-imidazol-2-yl)-2-(methylsulfonyl)phenyl)amino)-2-methyl-3H-imidazo[4,5-b]pyridin-5-yl)cyclopropanecarboxamide]	9.30 to 10.00
Cc1csc(-c2ccc(Nc3cc(Nc4cnc(C)c(C)n4)nc4[nH]c(C(F)F)nc34)c(S(C)(=O)=O)c2)n1 [I-463, 2-(difluoromethyl)-N5-(5,6-dimethylpyrazin-2-yl)-N7-(2-(methylsulfonyl)-4-(4-methylthiazol-2-yl)phenyl)-3H-imidazo[4,5-b]pyridine-5,7-diamine]	8.00 to 9.00
Cc1csc(-c2ccc(Nc3cc(Nc4cnc(C)c(C)n4)nc4[nH]c(C)nc34)c(S(C)(=O)=O)c2)n1 [I-464, N5-(5,6-dimethylpyrazin-2-yl)-2-methyl-N7-(2-(methylsulfonyl)-4-(4-methylthiazol-2-yl)phenyl)-3H-imidazo[4,5-b]pyridine-5,7-diamine]	9.00 to 9.30
Cc1nc2c(Nc3ccc(-c4nc(C)c(C)s4)cc3S(C)(=O)=O)cc(Nc3cnc(C)c(C)n3)nc2[nH]1 [I-466, N5-(5,6-dimethylpyrazin-2-yl)-N7-(4-(4,5-dimethylthiazol-2-yl)-2-(methylsulfonyl)phenyl)-2-methyl-3H-imidazo[4,5-b]pyridine-5,7-diamine]	9.00 to 9.30
Cc1cc(Nc2cc(Nc3ccc(-c4nc(C)cs4)cc3S(C)(=O)=O)c3nc(C(F)F)[nH]c3n2)nc(C)n1 [I-467, 2-(difluoromethyl)-N5-(2,6-dimethylpyrimidin-4-yl)-N7-(2-(methylsulfonyl)-4-(4-methylthiazol-2-yl)phenyl)-3H-imidazo[4,5-b]pyridine-5,7-diamine]	9.30 to 10.00
Cc1cc(Nc2cc(Nc3ccc(-c4nc(C)cs4)cc3S(C)(=O)=O)c3nc(C)[nH]c3n2)nc(C)n1 [I-468, N5-(2,6-dimethylpyrimidin-4-yl)-2-methyl-N7-(2-(methylsulfonyl)-4-(4-methylthiazol-2-yl)phenyl)-3H-imidazo[4,5-b]pyridine-5,7-diamine]	9.30 to 10.00
Cc1cc(Nc2cc(Nc3ccc(-c4nc(C)c(C)s4)cc3S(C)(=O)=O)c3nc(C(F)F)[nH]c3n2)nc(C)n1 [I-469, 2-(difluoromethyl)-N5-(2,6-dimethylpyrimidin-4-yl)-N7-(4-(4,5-dimethylthiazol-2-yl)-2-(methylsulfonyl)phenyl)-3H-imidazo[4,5-b]pyridine-5,7-diamine]	9.00 to 9.30
Cc1cc(Nc2cc(Nc3ccc(-c4nc(C)c(C)s4)cc3S(C)(=O)=O)c3nc(C)[nH]c3n2)nc(C)n1 [I-470, N5-(2,6-dimethylpyrimidin-4-yl)-N7-(4-(4,5-dimethylthiazol-2-yl)-2-(methylsulfonyl)phenyl)-2-methyl-3H-imidazo[4,5-b]pyridine-5,7-diamine]	9.30 to 10.00
CC1(C)COC(c2ccc(Nc3cc(NC(=O)[C@H]4C[C@H]4F)nc4[nH]c(C(F)F)nc34)c(S(C)(=O)=O)c2)=N1 [I-471, (1R,2R)—N-(2-(difluoromethyl)-7-((4-(4,4-dimethyl-4,5-dihydrooxazol-2-yl)-2-(methylsulfonyl)phenyl)amino)-3H-imidazo[4,5-b]pyridin-5-yl)-2-fluorocyclopropane-1-carboxamide]	8.00 to 9.00
Cc1nc2c(Nc3ccc([C@@H]4CCCO4)cc3S(C)(=O)=O)cc(NC(=O)C3CC3)nc2[nH]1 [I-472, (S)—N-(2-methyl-7-((2-(methylsulfonyl)-4-(tetrahydrofuran-2-yl)phenyl)amino)-3H-imidazo[4,5-b]pyridin-5-yl)cyclopropanecarboxamide]	9.30 to 10.00
Cc1nc2c(Nc3ccc([C@H]4CCCO4)cc3S(C)(=O)=O)cc(NC(=O)C3CC3)nc2[nH]1 [I-473, (R)—N-(2-methyl-7-((2-(methylsulfonyl)-4-(tetrahydrofuran-2-yl)phenyl)amino)-3H-imidazo[4,5-b]pyridin-5-yl)cyclopropanecarboxamide]	> 10.00
Cc1nc2c(Nc3ccc([C@H]4CCCCO4)cc3S(C)(=O)=O)cc(Nc3cnc(C)c(C)n3)nc2[nH]1 [I-474, (R)—N5-(5,6-dimethylpyrazin-2-yl)-2-methyl-N7-(2-(methylsulfonyl)-4-(tetrahydro-2H-pyran-2-yl)phenyl)-3H-imidazo[4,5-b]pyridine-5,7-diamine]	> 10.00
Cc1nc2c(Nc3ccc([C@@H]4CCCCO4)cc3S(C)(=O)=O)cc(Nc3cnc(C)c(C)n3)nc2[nH]1 [I-475, (S)—N5-(5,6-dimethylpyrazin-2-yl)-2-methyl-N7-(2-(methylsulfonyl)-4-(tetrahydro-2H-pyran-2-yl)phenyl)-3H-imidazo[4,5-b]pyridine-5,7-diamine]	9.30 to 10.00
Cc1csc(-c2ccc(Nc3cc(Nc4cc5n(n4)CCOC5)nc4[nH]c(C(F)F)nc34)c(S(C)(=O)=O)c2)n1 [I-476]	9.30 to 10.00
Cc1csc(-c2ccc(Nc3cc(Nc4cc5n(n4)CCOC5)nc4[nH]c(C)nc34)c(S(C)(=O)=O)c2)n1 [I-477, N5-(6,7-dihydro-4H-pyrazolo[5,1-c][1,4]oxazin-2-yl)-2-methyl-N7-(2-(methylsulfonyl)-4-(4-methylthiazol-2-yl)phenyl)-3H-imidazo[4,5-b]pyridine-5,7-diamine]	9.30 to 10.00
Cc1nc2c(Nc3ccc(-c4nn(C)cc4C)cc3S(C)(=O)=O)cc(NC(=O)[C@@H]3CC3(C)C)nc2[nH]1 [I-478, (R)—N-(7-((4-(1,4-dimethyl-1H-pyrazol-3-yl)-2-(methylsulfonyl)phenyl)amino)-2-methyl-3H-imidazo[4,5-b]pyridin-5-yl)-2,2-dimethylcyclopropane-1-carboxamide]	8.00 to 9.00
Cc1nc2c(Nc3ccc(-c4nn(C)cc4C)cc3S(C)(=O)=O)cc(NC(=O)[C@H]3CC3(C)C)nc2[nH]1 [I-479, (S)—N-(7-((4-(1,4-dimethyl-1H-pyrazol-3-yl)-2-(methylsulfonyl)phenyl)amino)-2-methyl-3H-imidazo[4,5-b]pyridin-5-yl)-2,2-dimethylcyclopropane-1-carboxamide]	8.00 to 9.00
Cc1nc(-c2ccc(Nc3cc(Nc4cc5n(n4)CCOC5)nc4[nH]c(C(F)F)nc34)c(S(C)(=O)=O)c2)sc1C [I-480, 2-(difluoromethyl)-N5-(6,7-dihydro-4H-pyrazolo[5,1-c][1,4]oxazin-2-yl)-N7-(4-(4,5-dimethylthiazol-2-yl)-2-(methylsulfonyl)phenyl)-3H-imidazo[4,5-b]pyridine-5,7-diamine]	9.30 to 10.00
